Measured values from patent publication US20040147723A1, “Moringa seed proteins” (priority 2001, published 2004).
≈ marks a conversion by molar mass, not a printed value. Where no end group is shown, it is not given here.

Tests used:
[1] = Coagulation test (glass bead suspension sedimentation); conditions: 20 μg/ml, glass beads
Experimental: The test was carried out in a 2 ml volume in a spectrophotometer cell (104QS/HELLMA). To evaluate the coagulation activity, 100 mg/ml suspension of 3.5-7 μm diameter glass beads (Sheriglass 5000, Potters-Ballotini) were diluted in 50 mM phosphate buffer, pH=7.0, to mimic turbid water. Stirring was kept continuously at 800 rpm and OD 500 nm was measured each second (LabVIEW sfotware/National Instruments Corporation) in a Perkin-Elmer 552 spectrophotometer. After 5 minutes of continuous stirring the compound to be tested was added to a final concentration of 20 μg/ml, and stirring was continued for 15 minutes. Active compounds were diluted before the test either in phosphate buffer 10 mM, pH=7.0 (E proteins, PHYTOFLOC and bacterially produced Flo) or in distilled water (synthetic Flo).
To quantify the flocculation efficiency a linear regression was performed on time points corresponding to four minutes before the addition of the flocculating preparation (basal sedimentation) and four minutes after the addition of the flocculating preparation (coagulation-mediated sedimentation). The difference between the coagulation-mediated and basal sedimentation was calculated by subtraction in OD per minutes and multiplied by 1000 (Δ slope).
To assess particle coagulation properties of Flo, a suspension of glass beads under continuous mixing was used to mimic turbid water. […]

E.coli ER2566 = conditions: ER2566, 2 h
Experimental: E.coli ER2566 was grown in LB medium to the exponential phase (A600=0.5-0.6) at 37° C. as above. The culture was centrifuged and resuspended in a same volume of 10 mM phosphate buffer pH=7.0, and E proteins, PHYTOFLOC (2 mg/ml), synthetic Flo (0.1 mg/ml to 2 mg/ml) carrier (buffer) or BSA (2 mg/ml) were added. After 2 hours incubation at 37° C., LB was added to the bacteria culture to obtain A600=0.1. All cultures were incubated at 37° C. at 200 rpm and the culture growth was followed through A600 measurements.
An exponential phase E.coli culture was centrifuged and incubated for 2 hrs at 37° C. in phosphate buffer alone (♦), or in phosphate buffer supplemented by the PHYTOFLOC extract (σ) or by synthetic Flo (ν) at a final concentration of 2 mg/ml. Bacteria were then diluted to A600=0.1 in LB growth medium and incubated at 37° C. under agitation. Optical density measurements were then recorded as indicated at 600 nm.
B. Exponentially growing E.coli culture was processed as indicated in (A) except that bacteria were incubated with different concentrations of synthetic Flo in mg/ml: 0 (ν), 0.1 (σ), 0.25 (O), 0.5 (Σ), 1 (λ) or 2 (B). BSA at 2 mg/ml was used as a non specific protein control (♦).

[2] = tested on: L. pneumophilia serogroup 10; assay: MIC/MBC in 96-well micro plaque, BYEα medium; type: cell-based
Experimental: (§1) Source of bacteria: The bacteria were isolated from drinking water of hospitals in Ticino, patient strains were obtained from the laboratory of microbiology at the CHUV.
(§2) MIC (minimal inhibitory concentration): MIC was measured with the help of a micro plaque with 96 wells, each containing 100 μl. The growth media were BYEα for L. pneumophilia and TSB for Mycobacterium and were containing a certain concentration of the peptide or antibiotic.
(§3) The media were then subjected to twofold dilutions (1 μl of bacterial suspension at a concentration of 5*10^8 CFU/ml diluted to 5*10^6 CFU/ml).
(§4) The L. pneumophilia culture was incubated at 35° C. and the results were read after 48 and 96 hours. The Mycobacterium culture was incubated at 30° C. for up to seven days.
(§5) MIC is the first well […].
(§6) MBC (minimal bactericidal concentration): 50 μl of the above suspensions were plated on solid media BCYEα or agar with blood. The L. pneumophilia culture was incubated at 35° C. for 48 hours and up to seven days for Mycobacterium.
(§7) The MBC value is the first plate without growth.

[3] = tested on: L. pneumophilia serogroup 1; assay: MIC/MBC in 96-well micro plaque, BYEα medium; type: cell-based
Experimental: as §1, §2, §3, §4, §5, §6, §7

QGPGRQPDFQRCGQQLRNISPPQRCPSLRQAVQLTHQQQGQVGPQQVRQMYRVASNIPST (cysteines drawn unpaired) [synthetic Flo]
specific coagulation activity compared with PHYTOFLOC [1]: higher
IC50 of antibacterial growth response (E.coli ER2566): approximately 100 μg/ml

O=C(O)c1cn(C2CC2)c2cc(N3CCNCC3)c(F)cc2c1=O [Ciprofloxacin]
MBC ([2]; L. pneumophilia serogroup 10): 16 to 30 µg/mL (≈ 48.3 to 90.5 µM)
MIC ([2]; L. pneumophilia serogroup 10, 35° C.): 16 µg/mL (≈ 48.3 µM)
MBC [3]: 30 to 60 µg/mL (≈ 90.5 to 181 µM)
MIC [3]: 30 µg/mL (≈ 90.5 µM)
